{"source": "patent US20130123135A1", "about": "“Methods To Identify Modulators of TAS2R48 Receptors” (priority 2010, published 2013)", "tested_on": "Sham transfected HEK293T/G16gust44 cells", "procedure": "The above procedure was also carried out for HEK293T/G16gust44 cells, formed as described in WO 2004/055048 with the exception that no DNA was added during the process. These cells are termed Sham transfected cells.\nOn day 0, the HEK293T cells formed as described in example 2, were seeded in antibiotic-free growth medium (standard DMEM with 10% (v/v) heat-inactivated fetal bovine serum, 2 mM L-glutamine […], 100 units/ml penicillin, and 100 [g/ml streptomycin) into black wall/clear bottom 96-well plates, coated with poly(ethylenimine) (0.005% v/v) at a concentration of 15,000 cells per well and incubated for 48 hours in humidified atmosphere (37° C., 5% CO2).\nPrior to performing the assay, the growth medium was discarded and the cells were left in a humidified atmosphere (37° C., 5% CO2) for 1 hour with 50 μl of loading buffer consisting of 1.5 μM Fluo-4 AM and […] probenicid (Sigma-Aldrich, St. Louis, Mo., US) in DMEM.\nFollowing this the 96-well plate was washed 5 times with 100 μl of assay buffer (130 mM NaCl, 5 mM KCl, 10 mM 4-(2-hydroxyethyl)-1-piperazineethanesulfonic acid (HEPES), 2 mM CaCl2, and 5 mM dextrose, pH 7.4) per well, using an automated plate washer (BioTek).\nThe plate was then further incubated for 30 minutes at room temperature in the dark to allow for complete de-esterification of the Fluo-4. Afterwards the plate was washed 5 times with 100 μl of assay buffer per well, and reconstituted with 100 μl of assay buffer per well.\nCyclamate solutions ranging in concentration from 250 mM to 800 mM were prepared in assay buffer.\nTo test receptor activation 20 μl of one of these cyclamate test solutions was added to the assay buffer of at least one well of the 96 well plate. This step was repeated until all cyclamate solutions of differing concentrations had been added to at least one well. Care was taken to ensure that only one cyclamate solution was added per well. The resulting cyclamate concentrations in the well plates ranged in concentration from 25 mM to 80 mM (This is due to the dilution of the cyclamate solution in the assay buffer present in the well).\nFor assay reading, the plate was placed in a Fluorometric Imaging Plate Reader (FLIPR) (FLIPR-TETRA™, Molecular Devices, Sunnyvale, Calif., US).\nFor each well of the plate fluorescence was continuously monitored for 20 seconds to give a signal baseline (averaged to give F0) prior to cyclamate addition and for 120 seconds after cyclamate addition. The change in signal divided by F0 gives ΔF/F0 indicated in the table, with ΔF being the maximum signal occurring within the 120 seconds minus the minimum signal (occurring within the 120 seconds after cyclamate addition.\nAs a control the above procedure was also carried out for the sham transfected cells formed as described in example 2.", "note": "Where two headings read alike, the source gives them in different places.", "data": [{"molecule": "O=S(=O)(O)NC1CCCCC1", "note": "[Cyclamate, cyclamate]", "values": [{"measurement": "Cyclamate Average ΔF/F0, Sham Transfected", "setting": "cyclamate 25 mM in well", "result": 0.186}, {"measurement": "Cyclamate Average ΔF/F0, Sham Transfected", "setting": "cyclamate 30 mM in well", "result": 0.182}, {"measurement": "Cyclamate Average ΔF/F0, Sham Transfected", "setting": "cyclamate 35 mM in well", "result": 0.198}, {"measurement": "Cyclamate Average ΔF/F0, Sham Transfected", "setting": "cyclamate 40 mM in well", "result": 0.204}, {"measurement": "Cyclamate Average ΔF/F0, Sham Transfected", "setting": "cyclamate 45 mM in well", "result": 0.194}, {"measurement": "Cyclamate Average ΔF/F0, Sham Transfected", "setting": "cyclamate 50 mM in well", "result": 0.2}, {"measurement": "Cyclamate Average ΔF/F0, Sham Transfected", "setting": "cyclamate 55 mM in well", "result": 0.182}, {"measurement": "Cyclamate Average ΔF/F0, Sham Transfected", "setting": "cyclamate 60 mM in well", "result": 0.16}, {"measurement": "Cyclamate Average ΔF/F0, Sham Transfected", "setting": "cyclamate 65 mM in well", "result": 0.17}, {"measurement": "Cyclamate Average ΔF/F0, Sham Transfected", "setting": "cyclamate 70 mM in well", "result": 0.14}, {"measurement": "Cyclamate Average ΔF/F0, Sham Transfected", "setting": "cyclamate 75 mM in well", "result": 0.11}, {"measurement": "Cyclamate Average ΔF/F0, Sham Transfected", "setting": "cyclamate 80 mM in well", "result": 0.178}]}]}
